Columns and labels:
[1] = target: T1, recombinant human FAP protein (Homo sapiens, UniProt Q12884); test: SPR binding to immobilized recombinant human FAP protein
T1 construct: purchased ACRO Biosystems FAP-H5244
T1 sequence (Q12884 1-760): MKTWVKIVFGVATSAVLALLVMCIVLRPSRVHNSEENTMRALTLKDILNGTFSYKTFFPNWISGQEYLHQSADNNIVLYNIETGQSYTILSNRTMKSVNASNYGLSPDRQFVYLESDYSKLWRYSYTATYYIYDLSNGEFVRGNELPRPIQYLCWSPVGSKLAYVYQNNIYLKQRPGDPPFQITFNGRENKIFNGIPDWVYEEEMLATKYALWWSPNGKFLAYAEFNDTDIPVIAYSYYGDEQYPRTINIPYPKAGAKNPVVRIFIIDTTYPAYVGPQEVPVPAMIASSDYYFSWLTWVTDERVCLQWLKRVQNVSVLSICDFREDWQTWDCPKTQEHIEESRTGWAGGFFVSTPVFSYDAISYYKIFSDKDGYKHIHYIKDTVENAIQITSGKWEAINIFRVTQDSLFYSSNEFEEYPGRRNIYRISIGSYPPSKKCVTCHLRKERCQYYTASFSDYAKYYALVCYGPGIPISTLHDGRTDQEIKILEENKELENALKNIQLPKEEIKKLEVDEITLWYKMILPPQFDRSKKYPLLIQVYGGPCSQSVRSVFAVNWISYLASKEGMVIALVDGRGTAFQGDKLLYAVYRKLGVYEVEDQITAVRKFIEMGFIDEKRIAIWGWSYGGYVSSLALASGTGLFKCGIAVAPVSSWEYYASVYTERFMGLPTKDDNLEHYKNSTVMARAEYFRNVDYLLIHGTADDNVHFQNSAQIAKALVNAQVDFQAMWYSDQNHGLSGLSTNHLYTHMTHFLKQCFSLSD
Protocol: (§1) The Biacore SPR interaction study was conducted to determine the binding kinetics between the peptides and the immobilized human FAP protein (FAP-H5244, ACRO Biosystems) or murine FAP protein (FAP-M52H3, ACRO Biosystems) as target antigens. The final binding affinity, represented by the equilibrium dissociation degree (M) or KD, was calculated by examining the relationship between the binding rate constant (ka) (M^−1 s^−1) and the dissociation rate (kd) (s^−1).

[2] = target: T2, recombinant murine FAP protein (Mus musculus, UniProt P97321); test: SPR binding to immobilized recombinant murine FAP protein
T2 construct: purchased ACRO Biosystems FAP-M52H3
T2 sequence (P97321 1-761): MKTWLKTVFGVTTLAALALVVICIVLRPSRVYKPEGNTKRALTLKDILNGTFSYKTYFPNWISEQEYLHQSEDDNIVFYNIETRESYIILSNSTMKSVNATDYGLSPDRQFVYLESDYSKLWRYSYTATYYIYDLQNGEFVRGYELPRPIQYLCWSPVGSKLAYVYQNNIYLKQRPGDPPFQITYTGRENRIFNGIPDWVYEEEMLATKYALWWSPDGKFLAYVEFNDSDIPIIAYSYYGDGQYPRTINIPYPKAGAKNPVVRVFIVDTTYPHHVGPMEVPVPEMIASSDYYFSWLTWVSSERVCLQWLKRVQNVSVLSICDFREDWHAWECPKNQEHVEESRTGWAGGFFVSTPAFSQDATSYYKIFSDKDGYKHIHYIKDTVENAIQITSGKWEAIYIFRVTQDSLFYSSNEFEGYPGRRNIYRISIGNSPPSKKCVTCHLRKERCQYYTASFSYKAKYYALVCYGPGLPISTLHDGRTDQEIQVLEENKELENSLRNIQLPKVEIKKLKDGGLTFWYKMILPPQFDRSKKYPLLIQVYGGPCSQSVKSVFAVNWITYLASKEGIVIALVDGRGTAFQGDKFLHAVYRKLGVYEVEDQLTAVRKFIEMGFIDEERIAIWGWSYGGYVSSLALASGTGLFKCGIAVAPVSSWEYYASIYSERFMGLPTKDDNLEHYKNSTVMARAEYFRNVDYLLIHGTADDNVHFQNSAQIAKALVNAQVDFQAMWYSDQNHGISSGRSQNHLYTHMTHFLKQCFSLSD
Protocol: as §1

[3] = Ex vivo biodistribution after imaging, HT-1080 tumor models; type: in vivo, mice; settings: nude (thymus-free), mouse, intravenous, 3 MBq, total radioactivity, 4.5 h p.i.
Protocol: A human pancreatic cancer cell line BxPC-3 and a murine pancreatic cancer cell Panc-02 were obtained from the American Type Culture Collection. The pancreatic cancer cell line T3M-4 was purchased by MeisenCTCC (Zhejiang, China). BxPC-3 and T3M-4 cell lines were grown in RPMI 1640 medium (Shanghai BasalMedia Technologies Co., LTD.) containing 10% FBS (GE Healthcare, Chicago, IL, USA) and 1% penicillin–streptomycin solution (Invitrogen). To culture the Panc-02 cell line, a medium called Dulbecco’s modified Eagle medium from Shanghai BasalMedia Technologies Co., LTD. was used, which consisted of 10% FBS. The cell line HT-1080 was grown in MEM medium (Shanghai BasalMedia Technologies Co., LTD.) supplemented with 10% FBS, 1% penicillin-streptomycin solution, and 1% nonessential amino acids (NEAA-11140050; Gibco). […]
After imaging collection and image reconstruction, samples from euthanized experimental mice, including blood and multiple significant organs, were harvested and weighed. The radioactivity in each collected tissue was counted using an automated gamma counter (Wizard 2480, PerkinElmer) and the accumulation of radioactivity in different tissues and organs was quantified and expressed as %ID/g (mean ± SD). […] At the end of each probe imaging and radioactivity counting study, tumor tissues were fixed in paraformaldehyde tissue fixative. […]

[4] = microPET/CT imaging, ROI analysis, Panc-02 tumor models; type: in vivo, mice; settings: C57BL/6, mouse, intravenous, 3 MBq, 4 h p.i.
Protocol: (§2) A human pancreatic cancer cell line BxPC-3 and a murine pancreatic cancer cell Panc-02 were obtained from the American Type Culture Collection. The pancreatic cancer cell line T3M-4 was purchased by MeisenCTCC (Zhejiang, China). BxPC-3 and T3M-4 cell lines were grown in RPMI 1640 medium (Shanghai BasalMedia Technologies Co., LTD.) containing 10% FBS (GE Healthcare, Chicago, IL, USA) and 1% penicillin–streptomycin solution (Invitrogen). To culture the Panc-02 cell line, a medium called Dulbecco’s modified Eagle medium from Shanghai BasalMedia Technologies Co., LTD. was used, which consisted of 10% FBS. The cell line HT-1080 was grown in MEM medium (Shanghai BasalMedia Technologies Co., LTD.) supplemented with 10% FBS, 1% penicillin-streptomycin solution, and 1% nonessential amino acids (NEAA-11140050; Gibco). A human fibrosarcoma cell line was stably transfected with FAP (HT1080-FAP) and cultured, as we previously described. All cell lines were cultured in a humid incubator with 5% CO2 at a temperature of 37 °C. Approval was granted by the Institutional Animal Care and Use Committee (Renji Hospital, School of Medicine, Shanghai Jiao Tong University) for all experimental protocols and procedures related to animal care. Panc-02 cells were implanted by subcutaneous injection of 5 × 10^6 tumor cells suspended in 100 μl PBS and matrigel matrix (Corning) with equal volume into the upper limb flank of C57BL/6 mice (Shanghai Sheng Chang Biotechnology Co., Ltd.). Four- to 6-week-old thymus-free nude mice (GemPharmatech) were subcutaneously inoculated with BxPC-3, T3M-4, HT-1080, and HT1080-FAP cells (5 × 10^6 in 100 μl of PBS mixing with 100 μl matrigel matrix) in the right shoulder. […]
(§3) MicroPET imaging was performed on isoflurane-anesthetized mice injected intravenously via the lateral tail vein with around 3 MBq (2.5 nmol) of the radioligand at certain times. […] The information was analyzed using OsiriX Lite software (Pixmeo SARL) and Inveon Research Workplace (Siemens Preclinical Solutions). […]

[5] = microPET/CT imaging, ROI analysis, HT1080-FAP tumor models; type: in vivo, mice; settings: nude (thymus-free), mouse, intravenous, 3 MBq, HT1080-FAP tumor
Protocol: (§4) A human pancreatic cancer cell line BxPC-3 and a murine pancreatic cancer cell Panc-02 were obtained from the American Type Culture Collection. The pancreatic cancer cell line T3M-4 was purchased by MeisenCTCC (Zhejiang, China). BxPC-3 and T3M-4 cell lines were grown in RPMI 1640 medium (Shanghai BasalMedia Technologies Co., LTD.) containing 10% FBS (GE Healthcare, Chicago, IL, USA) and 1% penicillin–streptomycin solution (Invitrogen). To culture the Panc-02 cell line, a medium called Dulbecco’s modified Eagle medium from Shanghai BasalMedia Technologies Co., LTD. was used, which consisted of 10% FBS. The cell line HT-1080 was grown in MEM medium (Shanghai BasalMedia Technologies Co., LTD.) supplemented with 10% FBS, 1% penicillin-streptomycin solution, and 1% nonessential amino acids (NEAA-11140050; Gibco). A human fibrosarcoma cell line was stably transfected with FAP (HT1080-FAP) and cultured, as we previously described. All cell lines were cultured in a humid incubator with 5% CO2 at a temperature of 37 °C. Approval was granted by the Institutional Animal Care and Use Committee (Renji Hospital, School of Medicine, Shanghai Jiao Tong University) for all experimental protocols and procedures related to animal care. Panc-02 cells were implanted by subcutaneous injection of 5 × 10^6 tumor cells suspended in 100 μl PBS and matrigel matrix (Corning) with equal volume into the upper limb flank of C57BL/6 mice (Shanghai Sheng Chang Biotechnology Co., Ltd.). Four- to 6-week-old thymus-free nude mice (GemPharmatech) were subcutaneously inoculated with BxPC-3, T3M-4, HT-1080, and HT1080-FAP cells (5 × 10^6 in 100 μl of PBS mixing with 100 μl matrigel matrix) in the right shoulder. Follow-up microPET/CT imaging and ex vivo biodistribution experiments were performed when the tumor diameter reached 8 to 9 mm.
MicroPET imaging was performed on isoflurane-anesthetized mice injected intravenously via the lateral tail vein with around 3 MBq (2.5 nmol) of the radioligand at certain times. Regarding the FD1 blocking group, an excessive amount of unlabeled FD1 (200-fold) was simultaneously injected with [^68Ga]Ga-DOTA-FD1 into the tail vein of another batch of mice. Images were acquired using an IRIS PET/CT system (Inviscan Imaging Systems). PET data were reconstructed using a nonscatter-corrected 3D-ordered subset expectation […]/maximum a posteriori (OSEM3D/MAP) algorithm. The information was analyzed using OsiriX Lite software (Pixmeo SARL) and Inveon Research Workplace (Siemens Preclinical Solutions). The percentage of injected dose per gram of tissue (%ID/g, mean ± SD) was utilized to present the distribution of tracers in the ROI, encompassing tumor, heart, lung, liver, kidney, and muscle.

[6] = microPET/CT imaging, ROI analysis, HT-1080 tumor models; type: in vivo, mice; settings: nude (thymus-free), mouse, intravenous, 3 MBq, 4 h p.i.
Protocol: as §2, §3

[7] = microPET/CT imaging, ROI analysis, BxPC-3 tumor models; type: in vivo, mice; settings: nude (thymus-free), mouse, intravenous, 3 MBq, 4 h p.i.
Protocol: as §2, §3

[8] = Ex vivo biodistribution after imaging, HT1080-FAP tumor models; type: in vivo, mice; settings: nude (thymus-free), mouse, intravenous, 3 MBq, total radioactivity; HT1080-FAP tumor, 4.5 h p.i.
Protocol: as §4
After imaging collection and image reconstruction, samples from euthanized experimental mice, including blood and multiple significant organs, were harvested and weighed. The radioactivity in each collected tissue was counted using an automated gamma counter (Wizard 2480, PerkinElmer) and the accumulation of radioactivity in different tissues and organs was quantified and expressed as %ID/g (mean ± SD). [^177Lu]Lu-DOTA-FD1 (~1.11 MBq, n = 3), [^177Lu]Lu-DOTA-FD2 (~1.11 MBq, n = 3), and [^177Lu]Lu-DOTA-FD3 (~1.11 MBq, n = 3) were injected into the tail vein of free nude mice at 6 h, 24 h, and 24 h for ex vivo biodistribution to verify the circulation time of the 3 probes in vivo. Biodistribution data from tumor-bearing mice injected with [^177Lu]Lu-DOTA-FD3 at 45 h (~1.11 MBq, n = 4) and 90 h (~1.11 MBq, n = 3) validated the prolonged enrichment of the probe at the tumor site. At the end of each probe imaging and radioactivity counting study, tumor tissues were fixed in paraformaldehyde tissue fixative. Briefly, sections of 10 μm were cut and stained for H&E following the standard protocols. IHC staining with a FAP antibody (ab227703, Abcam) was performed only on tumor tissues following accepted techniques.

SMILES | Kd [1] | Kd [2] | tissue uptake at 4.5 h [3] | tissue uptake at 4 h [4] | tissue uptake at 0.5 h ([5]; 30 min) | tissue uptake at 2 h ([5]; 2 h) | tissue uptake at 4 h ([5]; 4 h) | tissue uptake at 4 h [6] | tissue uptake at 4 h [7] | tissue uptake at 4.5 h [8]
CCCCCC(=O)N[C@H]1CSCc2cc(CSCCNC(=O)[C@H](CCCCNC(=O)CCCc3ccc(I)cc3)NC(=O)[C@@H](NC(=O)[C@H](CCSC)NC(=O)CN3CCN(CC(=O)O)CCN(CC(=O)O)CCN(CC(=O)O)CC3)C(C)C)cc(c2)CSC[C@@H](C(=O)O)NC(=O)[C@H](Cc2ccccc2)NC(=O)[C@H](CCC(N)=O)NC(=O)[C@H]([C@@H](C)O)NC(=O)[C@@H]2CCCN2C(=O)[C@@H]2CCCN2C1=O [FD3] | 6.25 nM | 13.7 nM | – | – | – | – | – | – | – | –
CCCCCC(=O)N[C@H]1CSCc2cc(CSCCNC(=O)[C@H](CCCCNC(=O)CCCc3ccc(I)cc3)NC(=O)CN3CCN(CC(=O)O)CCN(CC(=O)O)CCN(CC(=O)O)CC3)cc(c2)CSC[C@@H](C(=O)O)NC(=O)[C@H](Cc2ccccc2)NC(=O)[C@H](CCC(N)=O)NC(=O)[C@H]([C@@H](C)O)NC(=O)[C@@H]2CCCN2C(=O)[C@@H]2CCCN2C1=O [[^68Ga]Ga-DOTA-FD2, metal not drawn] | – | – | 10.4 ± 1.84 %ID/g | 6.9 ± 0.51 %ID/g | 6.63 ± 0.64 %ID/g | 8.23 ± 2.61 %ID/g | 9.37 ± 0.61 %ID/g | 8.1 ± 0.52 %ID/g | 7.67 ± 0.38 %ID/g | 11.9 ± 1.83 %ID/g
CCCCCC(=O)N[C@H]1CSCc2cc(CSCCNC(=O)[C@H](CCCCN)NC(=O)[C@@H](NC(=O)[C@H](CCSC)NC(=O)CN3CCN(CC(=O)O)CCN(CC(=O)O)CCN(CC(=O)O)CC3)C(C)C)cc(c2)CSC[C@@H](C(=O)O)NC(=O)[C@H](Cc2ccccc2)NC(=O)[C@H](CCC(N)=O)NC(=O)[C@H]([C@@H](C)O)NC(=O)[C@@H]2CCCN2C(=O)[C@@H]2CCCN2C1=O [FD1] | 3.3 nM | 10.2 nM | – | – | – | – | – | – | – | –
CCCCCC(=O)N[C@H]1CSCc2cc(CSCCNC(=O)[C@H](CCCCNC(=O)CCCc3ccc(I)cc3)NC(=O)CN3CCN(CC(=O)O)CCN(CC(=O)O)CCN(CC(=O)O)CC3)cc(c2)CSC[C@@H](C(=O)O)NC(=O)[C@H](Cc2ccccc2)NC(=O)[C@H](CCC(N)=O)NC(=O)[C@H]([C@@H](C)O)NC(=O)[C@@H]2CCCN2C(=O)[C@@H]2CCCN2C1=O [FD2] | 2.06 nM | 11.6 nM | – | – | – | – | – | – | – | –

— paper PMC11066877, “Development and Characterization of Novel FAP-Targeted Theranostic Pairs: A Bench-to-Bedside Study” (Research, 2023)
